Assays:
Format in all cases: physicochemical
[1] = Glass transition temperature by differential scanning calorimetry (DSC); conditions: for glass transition temperature (Tg) compared with glycopyrronium bromide: comparison with glycopyrronium bromide (1)
[2] = Characterisation of moisture sorption (hygroscopicity) of the amorphous form; conditions: sorption of moisture at low relative humidity
From the text: Part of the development of glycopyrronium bromide involves milling of the active substance down to a particle size suitable for use in a dry powder inhalation formulation. […] This material becomes sticky upon sorption of moisture at low relative humidity (RH), and then finally crystallises to a non-hygoscopic hard crystalline substance.
The amorphous form of glycopyrronium iodide (2), for example, can be formed by physical techniques such as spray drying or lyophylisation and its sorption behaviour studied by dynamic vapour sorption (DVS) varying RH over time.

[3] = TG-FTIR thermal stability (weight loss / degradation)

| Compound | glass transition temperature (Tg) ([1]; amorphous material, determined by DSC) [°C] | hygroscopicity of the amorphous form [2] | glass transition temperature (Tg) compared with glycopyrronium bromide [1] | TG-FTIR weight loss / degradation [3] | Tg (glass transition) ([1]; lyophilized material, DSC second scan) [°C] |
| --- | --- | --- | --- | --- | --- |
| C[N+]1(C)CCC(OC(=O)C(O)(c2ccccc2)C2CCCC2)C1 (stereo not drawn) [glycopyrronium bromide, reference compound] | 64.9 | highly hygroscopic | – | – | – |
| Glycopyrronium Acetate | – | – | lower glass transition temperature (Tg) than glycopyrronium bromide | no significant weight loss below 200° C., degrades above this temperature | – |
| Glycopyrronium Iodide | – | – | lower glass transition temperature (Tg) than glycopyrronium bromide | no significant weight loss below 200° C., degrades above this temperature | 55 |
| Glycopyrronium Sulphate | – | – | lower glass transition temperature (Tg) than glycopyrronium bromide | no significant weight loss below 200° C., degrades above this temperature | – |

Reference: patent US7915303B2, “Glycopyrronium salts and their therapeutic use” (priority 2005, dated 2011)
